Experimental data: PubChem BioAssay AID330 (DTP/NCI, 2004)
Several values for one entry are separate records, joined by “and”; a condition that tells them apart may be missing. Equal values may be shown once. Inconclusive results and toxic doses are left out. The calls were made as follows: active = survival T/C of 150% or more; inactive = T/C below 125% in these data. Square brackets hold non-standard residues; d marks the D form. Peptide text beside a SMILES is read from it. * marks the point of attachment. Cbz = O=C(OCc1ccccc1)*; Nva = CCC[CH](N)C(=O)O

Tested on: P388 leukemia ip, CD2F1 mice, survival T/C
Assay: NCI In Vivo Anticancer Drug Screen. Data for tumor model P388 Leukemia (intraperitoneal) in CD2F1 (CDF1) mice
Details: endpoint: median survival time, higher = longer survival
Method in brief: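 Mice carrying the transplanted tumor received test compound or vehicle. Survival was recorded in each group, and the value is the treated-group measurement divided by that of the vehicle-treated control group.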

[1] = dose: 50.0 mg/kg/injection, schedule: Q01DX005 (ip), vehicle: saline
[2] = dose: 100.0 mg/kg/injection, schedule: Q01DX005 (ip), vehicle: saline
[3] = dose: 200.0 mg/kg/injection, schedule: Q01DX005 (ip), vehicle: saline
[4] = dose: 6.25 mg/kg/injection, schedule: Q01DX009 (ip), vehicle: saline
[5] = dose: 50.0 mg/kg/injection, schedule: Q01DX005 (ip), vehicle: Klucel (hydroxypropylcellulose) (HPC)
[6] = dose: 50.0 mg/kg/injection, schedule: Q01DX005 (ip), vehicle: saline with Tween-80
[7] = dose: 100.0 mg/kg/injection, schedule: Q01DX005 (ip), vehicle: saline with Tween-80
[8] = dose: 200.0 mg/kg/injection, schedule: Q01DX005 (ip), vehicle: saline with Tween-80
[9] = dose: 60.0 mg/kg/injection, schedule: Q01DX005 (ip), vehicle: saline with Tween-80
[10] = dose: 120.0 mg/kg/injection, schedule: Q01DX005 (ip), vehicle: saline with Tween-80
[11] = dose: 240.0 mg/kg/injection, schedule: Q01DX005 (ip), vehicle: saline with Tween-80
[12] = dose: 25.0 mg/kg/injection, schedule: Q01DX009 (ip), vehicle: saline with Tween-80
[13] = dose: 50.0 mg/kg/injection, schedule: Q01DX009 (ip), vehicle: saline with Tween-80
[14] = dose: 100.0 mg/kg/injection, schedule: Q01DX009 (ip), vehicle: saline with Tween-80
[15] = dose: 200.0 mg/kg/injection, schedule: Q01DX009 (ip), vehicle: saline with Tween-80
[16] = dose: 400.0 mg/kg/injection, schedule: Q01DX009 (ip), vehicle: saline with Tween-80
[17] = dose: 100.0 mg/kg/injection, schedule: Q04DX003 (ip), vehicle: saline with Tween-80
[18] = dose: 200.0 mg/kg/injection, schedule: Q04DX003 (ip), vehicle: saline with Tween-80
[19] = dose: 400.0 mg/kg/injection, schedule: Q04DX003 (ip), vehicle: saline with Tween-80

Measured: T/C

CC(=O)CC(C)=O.CC(=O)CC(C)=O.[Cl][Sn][c]1ccccc1
inactive: dose: 25.0 mg/kg/injection, schedule: Q01DX005 (ip), vehicle: saline 109 % of control and 116 % of control | [1] 110 % of control and 122 % of control | [2] 109 % of control and 115 % of control | [3] 107 % of control and 111 % of control and 113 % of control

[Cu+2].[NH-]C(CO)C(=O)O.[NH-]C(Cc1cnc[nH]1)C(=O)O (centres undefined)
inactive: [4] 97 % of control | dose: 25.0 mg/kg/injection, schedule: Q01DX009 (ip), vehicle: saline 114 % of control

CN(CCS(=O)(=O)O)/N=C/c1ccc2c(c1)OCO2
inactive: dose: 100.0 mg/kg/injection, schedule: Q04DX003 (ip), vehicle: Klucel (hydroxypropylcellulose) (HPC) 103 % of control | dose: 200.0 mg/kg/injection, schedule: Q04DX003 (ip), vehicle: Klucel (hydroxypropylcellulose) (HPC) 100 % of control | dose: 400.0 mg/kg/injection, schedule: Q04DX003 (ip), vehicle: Klucel (hydroxypropylcellulose) (HPC) 100 % of control

COc1cc2c(cc1OC)C1C(=O)c3ccc4c(c3OC1CO2)CC(C(C)(O)CO)O4 (centres undefined)
inactive: dose: 10.0 mg/kg/injection, schedule: Q01DX005 (ip), vehicle: DMSO 108 % of control | dose: 20.0 mg/kg/injection, schedule: Q01DX005 (ip), vehicle: DMSO 107 % of control

CCOC(=O)C(N)(CO)Cc1ccccc1 (centres undefined)
inactive: [1] 103 % of control | [2] 100 % of control | [3] 99 % of control

CC(NC(=O)C(CO)NC(=O)OCc1ccccc1)C(=O)O (centres undefined)
inactive: [5] 118 % of control | dose: 100.0 mg/kg/injection, schedule: Q01DX005 (ip), vehicle: Klucel (hydroxypropylcellulose) (HPC) 97 % of control | dose: 200.0 mg/kg/injection, schedule: Q01DX005 (ip), vehicle: Klucel (hydroxypropylcellulose) (HPC) 108 % of control

CC1(C)OCC2OCOC(C3CC(=O)NC(=O)C3)C2O1 (centres undefined)
inactive: dose: 100.0 mg/kg/injection, schedule: Q04DX002 (ip), vehicle: suspension in saline 102 % of control | dose: 200.0 mg/kg/injection, schedule: Q04DX002 (ip), vehicle: suspension in saline 100 % of control | dose: 400.0 mg/kg/injection, schedule: Q04DX002 (ip), vehicle: suspension in saline 102 % of control

CCOC(=O)/C(C#N)=C/c1ccc(-c2cc(C(F)(F)F)cc(C(F)(F)F)c2)o1
inactive: [6] 92 % of control | [7] 90 % of control | [8] 88 % of control

Cc1cc([N+](=O)[O-])ccc1NC(=O)OC(C)C
inactive: [9] 99 % of control | [10] 111 % of control | [11] 99 % of control

CCCCCC(CN1CCCCC1)C(=O)/C=C/c1ccccc1 (centres undefined)
inactive: [12] 101 % of control | [13] 107 % of control | [14] 117 % of control

CCOC(=O)C1=C(C)Oc2cc3c(cc2C1c1ccc(OC)cc1)OCO3 (centres undefined)
inactive: [9] 105 % of control | [10] 105 % of control | [11] 94 % of control

Cc1cc(N/N=C/c2ccc3c(c2)OCO3)c2cc3c(cc2n1)OCO3
inactive: dose: 3.12 mg/kg/injection, schedule: Q01DX005 (ip), vehicle: Klucel (hydroxypropylcellulose) (HPC) 104 % of control | dose: 6.25 mg/kg/injection, schedule: Q01DX005 (ip), vehicle: Klucel (hydroxypropylcellulose) (HPC) 95 % of control | dose: 12.5 mg/kg/injection, schedule: Q01DX005 (ip), vehicle: Klucel (hydroxypropylcellulose) (HPC) 102 % of control and 95 % of control | dose: 25.0 mg/kg/injection, schedule: Q01DX005 (ip), vehicle: Klucel (hydroxypropylcellulose) (HPC) 107 % of control and 114 % of control | [5] 103 % of control

CCN(CC)Cc1cc(C)c(O)c(N=Nc2ccc3ccc4cccc5ccc2c3c45)c1C
inactive: dose: 12.5 mg/kg/injection, schedule: Q01DX009 (ip), vehicle: saline with Tween-80 94 % of control | [12] 87 % of control | [13] 99 % of control and 122 % of control and 90 % of control | [14] 105 % of control and 118 % of control and 94 % of control | [15] 100 % of control and 105 % of control | [16] 107 % of control

C[C@]12CCC(=O)C=C1CC[C@@H]1[C@@H]2[C@@H](O)C[C@@]2(C)[C@H]1CC[C@]2(O)C(=O)CF
inactive: [14] 100 % of control | [17] 109 % of control | [15] 100 % of control | [18] 109 % of control | [16] 100 % of control | [19] 109 % of control

O=P1(Nc2ccc(Cl)cc2)N(Cc2ccc(Cl)cc2)CCCN1Cc1ccc(Cl)cc1
inactive: [6] 93 % of control | [7] 92 % of control | [8] 98 % of control

C=CCN(CC=C)c1ncnc2[nH]ncc12
inactive: [17] 100 % of control | [18] 100 % of control | [19] 100 % of control

CN(C)CCC(=O)c1ccc2c(c1)OCO2
inactive: dose: 60.0 mg/kg/injection, schedule: Q01DX005 (ip), vehicle: saline 100 % of control | dose: 120.0 mg/kg/injection, schedule: Q01DX005 (ip), vehicle: saline 92 % of control

Cn1c(N2CCOCC2)cc2nc3ccccc3n2c1=O
inactive: [9] 96 % of control | [10] 98 % of control | [11] 96 % of control

CC[C@@]1(O)C[C@H](OC2CC(N(C)C)C(O)C(C)O2)c2c(O)c3c(c(O)c2[C@H]1OC1CC(N(C)C)C(O)C(C)O1)C(=O)c1cccc(O)c1C3=O (some centres undefined)
inactive: dose: 0.03 mg/kg/injection, schedule: Q01DX009 (ip), vehicle: other 118 % of control | dose: 0.03 mg/kg/injection, schedule: Q04DX003 (ip), vehicle: other 112 % of control | dose: 0.06 mg/kg/injection, schedule: Q04DX003 (ip), vehicle: other 114 % of control | dose: 0.13 mg/kg/injection, schedule: Q04DX003 (ip), vehicle: other 124 % of control | dose: 0.25 mg/kg/injection, schedule: Q04DX003 (ip), vehicle: other 121 % of control | dose: 0.5 mg/kg/injection, schedule: Q04DX003 (ip), vehicle: other 93 % of control

O=C(CBr)C(=O)OCc1ccccc1
inactive: dose: 0.78 mg/kg/injection, schedule: Q01DX009 (ip), vehicle: water 100 % of control | dose: 1.56 mg/kg/injection, schedule: Q01DX009 (ip), vehicle: water 99 % of control | dose: 3.13 mg/kg/injection, schedule: Q01DX009 (ip), vehicle: water 94 % of control | dose: 6.25 mg/kg/injection, schedule: Q01DX009 (ip), vehicle: water 102 % of control

CCCC(NC(=O)C(Cc1ccccc1)NC(=O)OCc1ccccc1)C(=O)O (stereo not drawn) (Cbz-Phe-[Nva]-OH; configuration not given here)
inactive: [6] 104 % of control | [7] 101 % of control | [8] 98 % of control

O=C1NC(=O)c2ccc3c4ccc5c6c(ccc(c7ccc1c2c73)c46)c(=O)n1c2ccccc2nc51
inactive: dose: 90.0 mg/kg/injection, schedule: Q01DX001 (ip), vehicle: Klucel (hydroxypropylcellulose) (HPC) 94 % of control | dose: 180.0 mg/kg/injection, schedule: Q01DX001 (ip), vehicle: Klucel (hydroxypropylcellulose) (HPC) 94 % of control | dose: 360.0 mg/kg/injection, schedule: Q01DX001 (ip), vehicle: Klucel (hydroxypropylcellulose) (HPC) 92 % of control

CSC(=S)N/N=C(\C)c1ccccc1
inactive: dose: 1.56 mg/kg/injection, schedule: Q01DX009 (ip), vehicle: saline 99 % of control | dose: 3.12 mg/kg/injection, schedule: Q01DX009 (ip), vehicle: saline 100 % of control | [4] 94 % of control and 97 % of control | dose: 100.0 mg/kg/injection, schedule: Q01DX009 (ip), vehicle: saline 98 % of control | dose: 200.0 mg/kg/injection, schedule: Q01DX009 (ip), vehicle: saline 90 % of control

CCNC(=O)C(C)O (centres undefined)
inactive: [1] 102 % of control | [2] 102 % of control | [3] 98 % of control

CC1C(=O)OC2C1CCC1(C)C=CC(=O)C3(C)OC213 (centres undefined)
inactive: dose: 60.0 mg/kg/injection, schedule: Q01DX005 (ip), vehicle: Klucel (hydroxypropylcellulose) (HPC) 100 % of control | dose: 120.0 mg/kg/injection, schedule: Q01DX005 (ip), vehicle: Klucel (hydroxypropylcellulose) (HPC) 104 % of control | dose: 240.0 mg/kg/injection, schedule: Q01DX005 (ip), vehicle: Klucel (hydroxypropylcellulose) (HPC) 105 % of control

C[CH2][Sn]([CH2]C)([S]CCS(=O)(=O)O)[S]CCS(=O)(=O)O
inactive: dose: 0.93 mg/kg/injection, schedule: Q01DX005 (ip), vehicle: saline 95 % of control | dose: 1.87 mg/kg/injection, schedule: Q01DX005 (ip), vehicle: saline 95 % of control
